Laboratory results from patent US9034403B2, “Yeast extract containing γ-Glu-X or γ-Glu-X-Gly and a method for producing the same” (AJINOMOTO CO., INC., priority 2010, dated 2015).
Numbered stars: 1 amine (or outer) side, 2 acyl side, 3 side chain; on linkers, the order of the positions; unused ones are H or OH. Square brackets hold non-standard residues; d marks the D form. Peptide text beside a SMILES is read from it. γGlu = O=C(O)[C@H](CCC(=O)[*:2])N[*:1]; Nva = CCC[C@H](N)C(=O)O

Key:
[1] = system: GSH1 overexpressing strain AG1; assay: Addition of nVal to GSH1 overexpressing strain AG1, γ-Glu-nVal content; assay type: cell-based, Saccharomyces cerevisiae; details: for γ-Glu-nVal content: culture continued 1 hour
Method: Then, this AG1 strain was cultivated in SD medium supplemented with nVal. More specifically, one loop of the AG1 strain was inoculated into SD medium (50 ml in a 500 ml-volume Sakaguchi flask), and cultured at 30° C. for 24 hours with shaking at a velocity of 120 rpm. Absorbance of the obtained culture broth was measured, and the culture broth was inoculated into SDP medium (400 ml in a 2 L-volume conical flask with baffle fins, two or more flasks) so that OD660 was 0.01 at the start of the culture, and culture was performed at 30° C. for 23 hours with shaking by rotation at a velocity of 120 rpm. After 23 hours, nVal solution was added to a final concentration of 10 ppm or 100 ppm, and the cultures were continued for 1 hour. Then, the amount of γ-Glu-nVal was measured in the same manner described in the experimental example 15. The γ-Glu-nVal content was 0.07% when 10 ppm of nVal was added to the medium and the γ-Glu-nVal content was 0.37% when 100 ppm of nVal was added to the medium. Then, yeast extract containing γ-Glu-nVal was prepared from the broth culture cultivated with 100 ppm nVal basically in the same manner as described in Example 16. This yeast extract contained 1.44% γ-Glu-nVal at the dry matter base. This yeast extract would give strong kokumi for initial and middle taste from its character.

[2] = system: S288C, Y3560 and YEp24-PTDH3-GSH2 strains; assay: Influence of YEp24-PTDH3-GSH2 on γ-EV to γ-EVG conversion; assay type: cell-based, Saccharomyces cerevisiae; details: 18 hours
Method: Each of the S288C ura3Δ227/YEp24-PTDH3-GSH2, Y3560/YEp24-PTDH3-GSH2, S288C and Y3560 strains, was cultivated in 50-ml tubes containing 10 ml of SD medium with 100 ppm γ-Glu-Val as a final concentration. For Y3560 strain medium was also supplemented with uracil (20 mg/L). Tubes were inoculated by overnight culture of corresponding strain at initial OD600=0.01, and placed in rotation shaker at 240 rpm, 30° C. for 18 hours. Then cells from 2 ml of broth culture were harvested by centrifugation, and were washed by 1 ml of milliQ water three times. Then washed cells were suspended in 1 ml of milliQ and were incubated at 70° C. for 10 min with a water bath to extract intracellular materials. After cell debris and the extract were separated by centrifugation, aqueous phase was transferred to clean vial and then the vial was vacuum-dried. Thus the dried extract was prepared. Then γ-Glu-Val-Gly in the dried extract was measured with LC-MS/MS analysis as it is described in example 12.

[3] = system: GSH2 overexpressing strain PG2 and WT strain; assay: Addition of γ-Glu-Val to GSH2 overexpressing strain PG2 and WT strain, γ-Glu-Val-Gly content; assay type: cell-based, Saccharomyces cerevisiae
Method: GSH2 overexpressing strain PG2 was constructed basically in the same manner as described in Example 10 except that AJ14956 described in Example 19 was used instead of ura3Δ0 from S288C. As a control, WT strain was obtained by returning the deleted URA3 gene into wild type gene from AJ14956 in the same manner described in Example 10 and Example 19.
One loop of the WT strain or PG2 strain was inoculated into SD medium (50 ml in a 500 ml-volume Sakaguchi flask), and cultured at 30° C. for 24 hours with shaking at a velocity of 120 rpm. Absorbance of the obtained culture broth was measured, and the culture broth was inoculated into the SD medium supplemented with various concentrations of γ-Glu-Val (400 ml in a 2 L-volume conical flask with baffle fins, two or more flasks) so that OD660 was 0.01 at the start of the culture, and culture was performed at 30° C. with shaking by rotation at a velocity of 120 rpm until OD660 reached to the predetermined value. Then, the amount of γ-Glu-Val-Gly in dry cells and the solid content of the extracted extract were calculated in the same manner described previously. As shown in the results, PG2, a GSH2 overexpressing strain, took up γ-Glu-Val from the medium and converted it into γ-Glu-Val-Gly in the cell.

[4] = system: Saccharomyces cerevisiae S288C strain; assay: Addition of peptide to medium of S288C strain; peptide content in dry cells and in extract by LC-MS/MS; assay type: cell-based
Method: Absorbance of the obtained culture broth was measured, the culture broth was inoculated into SD medium (400 ml in a 2 L-volume conical flask with baffle fins, a pluratity of flasks) so that OD660 was 0.01 at the start of the culture (absorbance was measured by using DU640 SPECTROPHTOMETER, BECKMAN COULTER), and culture was performed at 30° C. for 19 hours with shaking by rotation at a velocity of 120 rpm. From the obtained culture broth, 400 OD units of the cells (1 OD unit is defined as cells contained in 1 ml of culture broth of which OD660 is 1) were collected by centrifugal separation. The supernatant was removed as much as possible, and the residual cells were suspended in 45 ml of Milli-Q water. The cells were collected again by centrifugal separation, and resuspended in 45 ml of Milli-Q water. By repeating this operation 3 times in total, the medium was completely removed from the cells. The washed cells were suspended in about 1.5 ml of Milli-Q water, and the suspension was heated at 70° C. for 10 minutes. By this step, the extractable components contained in the cells were extracted. Then, the extract and the cell residue were separated by centrifugation.
Cell debris were removed from the extract using a centrifugal filtration membrane of 10 kDa (Amicon Ultra—0.5 mL 10K, MILLIPORE, Catalogue Number UFC501096)), the obtained fraction was derivatized with the AQC reagent in the same manner as that used in Example 1, and γ-Glu-Val-Gly and γ-Glu-Val were measured by LC-MS/MS. Separately, the amount of GSH in the cells was measured in a conventional manner (GSH in the extract was derivatized by using a fluorescence reagent ABD-F that binds to thiol group, separated and quantified by HPLC). Furthermore, dry cell weight was measured after the washed cells were dried at 104° C. for 4 hours. From the amounts of γ-Glu-Val-Gly and γ-Glu-Val in the extract prepared from the cells that was contained in a certain volume of culture broth and dry cell weight measured as described above, the amount of these peptides based on weight of dried cells was calculated. […]
One loop of the S288C strain was inoculated into SD medium (50 ml in a 500 ml-volume Sakaguchi flask), and cultured at 30° C. for 24 hours with shaking at a velocity of 120 rpm. Absorbance of the obtained culture broth was measured, the culture broth was inoculated into SD medium (400 ml in a 2 L-volume conical flask with baffle fins, two or more flasks) so that OD660 was 0.01 at the start of the culture, and culture was performed at 30° C. for 19 hours with shaking by rotation at a velocity of 120 rpm. After 19 hours, γ-Glu-Val-Gly aqueous solutions of various concentrations were added to obtain predetermined concentrations, and the culture was continued for 1 hour. Using these culture broths, the γ-Glu-Val-Gly content in dry cells was calculated in the same manner as in Example 2. Furthermore, the solid content of the extract was calculated, and the amount of γ-Glu-Val-Gly in the solid content was also calculated. […]
The cells were collected from the total culture broth, and washed in the same manner as that of Example 2. The washed cells in an amount of 400 OD units were suspended in 1.5 ml of Milli-Q water. This suspension was maintained at 70° C. for 10 minutes to produce an extract from the yeast cells. Furthermore, the suspension was centrifuged to remove the cell residues and thereby collect only the extract. The γ-Glu-Val-Gly concentration of this extract (extract of addition experiment) was measured to be about 300 ppm, and solid content was about 1%. The γ-Glu-Val-Gly concentration in an extract prepared in the same way but without adding γ-Glu-Val-Gly to the culture broth (extract of no addition experiment) was below the quantitation limit, and solid content was about 1%.
One loop of the S288C strain was inoculated into SD medium (50 ml in a 500 ml-volume Sakaguchi flask), and cultured at 30° C. for 24 hours with shaking at a velocity of 120 rpm. […]

[5] = system: S288C PADH1-HGT1 (Hgt1p overproducing strain) and S288C; assay: Peptide uptake of Hgt1p overproducing strain and parental strain S288C, intracellular content on dry weight cell; assay type: cell-based, Saccharomyces cerevisiae; details: S288C PADH1-HGT1; γ-Glu-nVal-Gly 100 ppm added to the medium
Method: One loop of the S288C strain was inoculated into SD medium (50 ml in a 500 ml-volume Sakaguchi flask), and cultured at 30° C. for 24 hours with shaking at a velocity of 120 rpm. Absorbance of the obtained culture broth was measured, the culture broth was inoculated into SD medium (400 ml in a 2 L-volume conical flask with baffle fins, two or more flasks) so that OD660 was 0.01 at the start of the culture, and culture was performed at 30° C. for 19 hours with shaking by rotation at a velocity of 120 rpm. After 19 hours, γ-Glu-Val-Gly aqueous solutions of various concentrations were added to obtain predetermined concentrations, and the culture was continued for 1 hour. Using these culture broths, the γ-Glu-Val-Gly content in dry cells was calculated in the same manner as in Example 2. Furthermore, the solid content of the extract was calculated, and the amount of γ-Glu-Val-Gly in the solid content was also calculated.
The S288C PADH1-HGT1, Hgt1p overproducing strain obtained in Example 12, and its parental strain S288C, were evaluated for their ability to take up γ-Glu-Val-Gly in the same manners as described in Example 4. The amount of γ-Glu-Val-Gly added into the medium was 100 ppm as a final concentration. As a result, intracellular content of γ-Glu-Val-Gly in S288C on the dry weight cell was about 0.9%, but intracellular content of γ-Glu-Val-Gly in S288C PADH1-HGT1 on the dry weight cell was about 4.9%.
S288C PADH1-HGT1, Hgt1p overproducing strain obtained in Example 12, and its parental strain S288C were evaluated for their γ-Glu-nVal-Gly uptake abilities in the same manners as described in Example 4 and Example 13. The amount of γ-Glu-nVal-Gly added to the medium was 100 ppm as a final concentration.

[6] = PG2 strain, γ-Glu-Val in the medium 100 ppm, CT 21 hr
[7] = PG2 strain, γ-Glu-Val in the medium 500 ppm, CT 21 hr
[8] = WT strain, γ-Glu-Val in the medium 100 ppm, CT 19 hr
[9] = WT strain, γ-Glu-Val in the medium 500 ppm, CT 19 hr
[10] = 25 ppm γ-Glu-Val added to medium after 19 hours, culture continued 1 hour
[11] = 100 ppm γ-Glu-Val added to medium after 19 hours, culture continued 1 hour
[12] = 200 ppm γ-Glu-Val added to medium after 19 hours, culture continued 1 hour
[13] = γ-Glu-Val 100 ppm added to SD medium in advance, culture 24 hours

CCC[C@H](N)C(=O)O [nVal, norvaline]
γ-Glu-nVal content ([1]; 10 ppm of nVal added after 23 hours): 0.07%
γ-Glu-nVal content ([1]; 100 ppm of nVal added after 23 hours): 0.37%
γ-Glu-nVal in yeast extract at the dry matter base ([1]; yeast extract from broth culture cultivated with 100 ppm nVal): 1.44%

CC(C)[C@H](NC(=O)CC[C@H](N)C(=O)O)C(=O)O [γ-Glu-Val]
γ-EVG ([2]; strain S288C ura3Δ227/YEp24-PTDH3-GSH2, 100 ppm γ-Glu-Val in SD medium): 705 μg 1^−1 OD600^−1
γ-EVG ([2]; strain S288C, 100 ppm γ-Glu-Val in SD medium): 6 μg 1^−1 OD600^−1
γ-EVG ([2]; strain Y3560/YEp24-PTDH3-GSH2, 100 ppm γ-Glu-Val in SD medium): 2039 μg 1^−1 OD600^−1
γ-EVG ([2]; strain Y3560, 100 ppm γ-Glu-Val in SD medium with uracil): 110 μg 1^−1 OD600^−1
γ-Glu-Val-Gly content in dry cells [3, 6]: 81 ppm
γ-Glu-Val-Gly content in solid content of extract [3, 6]: 384 ppm
γ-Glu-Val-Gly content in dry cells [3, 7]: 123 ppm
γ-Glu-Val-Gly content in solid content of extract [3, 7]: 585 ppm
γ-Glu-Val-Gly content in dry cells [3, 8]: 7 ppm
γ-Glu-Val-Gly content in solid content of extract [3, 8]: 29 ppm
γ-Glu-Val-Gly content in dry cells [3, 9]: 7 ppm
γ-Glu-Val-Gly content in solid content of extract [3, 9]: 29 ppm
γ-Glu-Val content in dry cells [4, 10]: 1468 ppm
γ-Glu-Val content in solid content of extract [4, 10]: 8491 ppm
γ-Glu-Val content in dry cells [4, 11]: 6369 ppm
γ-Glu-Val content in solid content of extract [4, 11]: 27599 ppm
γ-Glu-Val content in dry cells [4, 12]: 10930 ppm
γ-Glu-Val content in solid content of extract [4, 12]: 49474 ppm
γ-Glu-Val present in dry cells [4, 13]: 7171 ppm
γ-Glu-Val-Gly present in dry cells [4, 13]: 20 ppm

CCC[C@H](NC(=O)CC[C@H](N)C(=O)O)C(=O)NCC(=O)O [γ-Glu-nVal-Gly] (γGlu-[Nva]-Gly-OH)
γ-Glu-nVal-Gly concentration of extract ([4]; 50 ppm γ-Glu-nVal-Gly added after 19 hours, culture continued 1 hour, 400 OD units in 1.5 ml, solid content about 1%): about 100 ppm
γ-Glu-nVal-Gly content in the dry cell ([4]; γ-Glu-nVal-Gly added into the medium at 10 ppm): about 0.07%
γ-Glu-nVal-Gly content in the dry cell ([4]; γ-Glu-nVal-Gly added into the medium at 100 ppm): about 0.09%
intracellular content of γ-Glu-nVal-Gly on the dry weight cell [5]: about 2.84%

CCC[C@H](NC(=O)CC[C@H](N)C(=O)O)C(=O)O [γ-Glu-nVal]
γ-Glu-nVal content in the dry cell ([4]; γ-Glu-nVal added into the medium at 10 ppm): about 0.03%
γ-Glu-nVal content in the dry cell ([4]; γ-Glu-nVal added into the medium at 100 ppm): about 0.13%
